# Measurements taken from patent publication US8501946B2 (Glaxo Group Limited, priority 2009, dated 2013).
# Target: T1, human recombinant P2X7 receptors (Homo sapiens, UniProt Q99572)
# T1 construct: expressed in transfected cells
# T1 sequence (Q99572 1-595): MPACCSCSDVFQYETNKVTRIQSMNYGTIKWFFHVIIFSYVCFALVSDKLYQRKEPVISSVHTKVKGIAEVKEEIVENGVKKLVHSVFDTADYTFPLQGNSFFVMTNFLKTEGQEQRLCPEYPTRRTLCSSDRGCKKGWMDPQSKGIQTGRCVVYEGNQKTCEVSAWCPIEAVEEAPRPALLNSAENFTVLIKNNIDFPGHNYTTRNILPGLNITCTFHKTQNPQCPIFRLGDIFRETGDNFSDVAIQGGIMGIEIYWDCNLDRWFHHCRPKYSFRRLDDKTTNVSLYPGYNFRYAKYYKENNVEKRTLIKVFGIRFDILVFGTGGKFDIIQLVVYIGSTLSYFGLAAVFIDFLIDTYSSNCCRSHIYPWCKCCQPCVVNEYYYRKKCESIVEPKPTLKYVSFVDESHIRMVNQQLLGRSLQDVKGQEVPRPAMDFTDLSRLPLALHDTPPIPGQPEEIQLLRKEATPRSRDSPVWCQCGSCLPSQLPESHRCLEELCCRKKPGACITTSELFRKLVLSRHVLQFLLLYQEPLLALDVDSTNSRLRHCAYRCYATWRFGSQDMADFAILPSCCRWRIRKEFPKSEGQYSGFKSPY
# Assay: Ethidium Accumulation Assay 2 (HEK293 cells, ATP-induced ethidium uptake)
# Type: cell-based
# Conditions: HEK293 cells expressing human P2X7; sometimes mean of more than one measurement; read-out: Assay 2 (antagonist pIC50 for blocking ATP responses) (converted)
# Description: Eithidium Accumulation Assay 2
# Human Embryonic Kidney (HEK) 293 cells, stably expressing human recombinant P2X7 receptors, were grown in poly-D-lysine pretreated 96 well plates for 24 hours at 37° C.
# The cells were washed with assay buffer (100 μL), before addition of 25 μL of assay buffer and then 25 ul of assay buffer containing the putative P2X7 receptor antagonist compound. The cells were then incubated at room temperature (19-21° C.) for 30 min before addition of ATP solution (50 μM). […] Antagonist pIC50 values for blocking ATP responses were determined using iterative curve fitting techniques.
row,Structure (SMILES),IC50 [µM]
1,"O=C(c1ccc(Cl)c(F)c1Cl)N1CCn2c(nnc2-c2ncccc2F)C1 [Example 170, 7-[(2,4-dichloro-3-fluorophenyl)carbonyl]-3-(3-fluoro-2-pyridinyl)-5,6,7,8-tetrahydro[1,2,4]triazolo[4,3-a]pyrazine]",< 0.01
2,"O=C(c1ccc(Cl)cc1Cl)N1CCn2c(nnc2-c2ccno2)C1 [Example 157, 7-[(2,4-dichlorophenyl)carbonyl]-3-(5-isoxazolyl)-5,6,7,8-tetrahydro[1,2,4]triazolo[4,3-a]pyrazine]",< 0.501
3,"Cc1c(Cl)cccc1C(=O)N1CCn2c(nnc2-c2ncns2)C1 [Example 195, 7-[(3-Chloro-2-methylphenyl)carbonyl]-3-(1,2,4-thiadiazol-5-yl)-5,6,7,8-tetrahydro[1,2,4]triazolo[4,3-a]pyrazine]",< 0.01
4,"O=C(c1ccc(Cl)c(F)c1Cl)N1CCn2c(nnc2-c2cscn2)C1 [Example 149, 7-[(2,4-dichloro-3-fluorophenyl)carbonyl]-3-(1,3-thiazol-4-yl)-5,6,7,8-tetrahydro[1,2,4]triazolo[4,3-a]pyrazine]",< 0.01
5,"COc1cccc(-c2nnc3n2CCN(C(=O)c2ccc(Cl)c(F)c2Cl)C3)n1 [Example 176, 7-[(2,4-dichloro-3-fluorophenyl)carbonyl]-3-[6-(methyloxy)-2-pyridinyl]-5,6,7,8-tetrahydro[1,2,4]triazolo[4,3-a]pyrazine]",< 0.1
6,"Cc1cc(Cl)ccc1C(=O)N1CCn2c(nnc2-c2cnccn2)C1 [Example 145, 7-[(4-chloro-2-methylphenyl)carbonyl]-3-(2-pyrazinyl)-5,6,7,8-tetrahydro[1,2,4]triazolo[4,3-a]pyrazine]",< 0.1
7,"O=C(c1ccc(Cl)cc1Cl)N1CCn2c(nnc2-c2nccs2)C1 [Example 199, 7-[(2,4-Dichlorophenyl)carbonyl]-3-(1,3-thiazol-2-yl)-5,6,7,8-tetrahydro[1,2,4]triazolo[4,3-a]pyrazine]",< 0.1
8,"Cc1c(Cl)ccc(C(=O)N2CCn3c(nnc3-c3cnccn3)C2)c1Cl [Example 154, 7-[(2,4-dichloro-3-methylphenyl)carbonyl]-3-(2-pyrazinyl)-5,6,7,8-tetrahydro[1,2,4]triazolo[4,3-a]pyrazine]",< 0.01
9,"O=C(c1cccc(Cl)c1Cl)N1CCn2c(nnc2-c2ncns2)C1 [Example 192, 7-[(2,3-Dichlorophenyl)carbonyl]-3-(1,2,4-thiadiazol-5-yl)-5,6,7,8-tetrahydro [1,2,4]triazolo[4,3-a]pyrazine]",< 0.01
10,"O=C(c1ccc(Cl)cc1Cl)N1CCn2c(nnc2-c2cnsn2)C1 [Example 160, 7-[(2,4-dichlorophenyl)carbonyl]-3-(1,2,5-thiadiazol-3-yl)-5,6,7,8-tetrahydro[1,2,4]triazolo[4,3-a]pyrazine]",< 0.1
11,"Cc1scnc1-c1nnc2n1CCN(C(=O)c1ccc(Cl)cc1Cl)C2 [Example 206, 7-[(2,4-dichlorophenyl)carbonyl]-3-(5-methyl-1,3-thiazol-4-yl)-5,6,7,8-tetrahydro[1,2,4]triazolo[4,3-a]pyrazine]",< 0.1
12,"Cc1c(C(=O)N2CCn3c(nnc3-c3cnccn3)C2)ccc(F)c1F [Example 151, 7-[(3,4-difluoro-2-methylphenyl)carbonyl]-3-(2-pyrazinyl)-5,6,7,8-tetrahydro[1,2,4]triazolo[4,3-a]pyrazine]",< 0.01
13,"Cc1csnc1-c1nnc2n1CCN(C(=O)c1ccc(Cl)c(F)c1Cl)C2 [Example 203, 7-[(2,4-dichloro-3-fluorophenyl)carbonyl]-3-(4-methyl-3-isothiazolyl)-5,6,7,8-tetrahydro[1,2,4]triazolo[4,3-a]pyrazine]",< 0.1
14,"Cc1c(C(=O)N2CCn3c(nnc3-c3ccc(F)cn3)C2)ccc(F)c1F [Example 155, 7-[(3,4-difluoro-2-methylphenyl)carbonyl]-3-(5-fluoro-2-pyridinyl)-5,6,7,8-tetrahydro[1,2,4]triazolo[4,3-a]pyrazine]",< 0.1
15,"O=C(c1ccc(Cl)cc1Cl)N1CCn2c(nnc2-c2ccon2)C1 [Example 161, 7-[(2,4-dichlorophenyl)carbonyl]-3-(3-isoxazolyl)-5,6,7,8-tetrahydro[1,2,4]triazolo[4,3-a]pyrazine]",< 0.501
16,"Cc1ccc(C(=O)N2CCn3c(nnc3-c3cnccn3)C2)c(Cl)c1Cl [Example 152, 7-[(2,3-dichloro-4-methylphenyl)carbonyl]-3-(2-pyrazinyl)-5,6,7,8-tetrahydro[1,2,4]triazolo[4,3-a]pyrazine]",< 0.01
17,"N#Cc1c(Cl)cccc1C(=O)N1CCn2c(nnc2-c2ccccn2)C1 [Example 204, 2-Chloro-6-{[3-(2-pyridinyl)-5,6-dihydro[1,2,4]triazolo[4,3-a]pyrazin-7(8H)-yl]carbonyl}benzonitrile]",< 0.01
18,"O=C(c1ccc(Cl)c(F)c1Cl)N1CCn2c(nnc2-c2cnsn2)C1 [Example 190, 7-[(2,4-Dichloro-3-fluorophenyl)carbonyl]-3-(1,2,5-thiadiazol-3-yl)-5,6,7,8-tetrahydro[1,2,4]triazolo[4,3-a]pyrazine]",< 0.01
19,"Cc1scnc1-c1nnc2n1CCN(C(=O)c1cccc(Cl)c1C)C2 [Example 207, 7-[(3-chloro-2-methylphenyl)carbonyl]-3-(5-methyl-1,3-thiazol-4-yl)-5,6,7,8-tetrahydro[1,2,4]triazolo[4,3-a]pyrazine]",< 0.1
20,"Cc1ccc(C(=O)N2CCn3c(nnc3-c3cnccn3)C2)c(C(F)(F)F)c1 [Example 148, 7-{[4-methyl-2-(trifluoromethyl)phenyl]carbonyl}-3-(2-pyrazinyl)-5,6,7,8-tetrahydro[1,2,4]triazolo[4,3-a]pyrazine]",< 0.501
21,"[2H]c1ccnc(-c2nnc3n2CCN(C(=O)c2ccc(Cl)c(F)c2Cl)C3)c1 [Example 182, 7-[(2,4-Dichloro-3-fluorophenyl)carbonyl]-3-(2-pyridinyl)-5,6,7,8-tetrahydro[1,2,4]triazolo[4,3-a]pyrazine-d1]",< 0.01
22,"O=C(c1ccc(Cl)c(F)c1Cl)N1CCn2c(nnc2-c2ccns2)C1 [Example 178, 7-[(2,4-dichloro-3-fluorophenyl)carbonyl]-3-(5-isothiazolyl)-5,6,7,8-tetrahydro[1,2,4]triazolo[4,3-a]pyrazine]",< 0.1
23,"Cc1c(F)ccc(C(=O)N2CCn3c(nnc3-c3cnccn3)C2)c1Cl [Example 153, 7-[(2-chloro-4-fluoro-3-methylphenyl)carbonyl]-3-(2-pyrazinyl)-5,6,7,8-tetrahydro[1,2,4]triazolo[4,3-a]pyrazine]",< 0.01
24,"[2H]c1ccc(-c2nnc3n2CCN(C(=O)c2ccc(Cl)c(F)c2Cl)C3)nc1 [Example 183, 7-[(2,4-Dichloro-3-fluorophenyl)carbonyl]-3-(2-pyridinyl)-5,6,7,8-tetrahydro[1,2,4]triazolo[4,3-a]pyrazine-d1]",< 0.01
25,"O=C(c1ccc(Cl)c(F)c1Cl)N1CCn2c(nnc2-c2csnn2)C1 [Example 189, 7-[(2,4-Dichloro-3-fluorophenyl)carbonyl]-3-(1,2,3-thiadiazol-4-yl)-5,6,7,8-tetrahydro[1,2,4]triazolo[4,3-a]pyrazine]",< 0.1
26,"O=C(c1ccc(Cl)c(F)c1Cl)N1CCn2c(nnc2-c2nccs2)C1 [Example 187, 7-[(2,4-Dichloro-3-fluorophenyl)carbonyl]-3-(1,3-thiazol-2-yl)-5,6,7,8-tetrahydro[1,2,4]triazolo[4,3-a]pyrazine]",< 0.01
